Consider one molecule from US10308938B2, “Compositions and methods to activate or inhibit toll-like receptor signaling” (priority 2014, dated 2019).

Entries after “also recorded” stand apart in the source; their conditions may differ.

Test [1] has as its system CD4^+ T cells. As to the kind of experiment: Cytokine gene expression in stimulated CD4+ T cells, TaqMan real-time PCR. It is filed as cell-based, human. The conditions noted are these: 12 hours after activation. An excerpt: (§1) Quantification of mRNA expression levels by RT-PCR. RNA was isolated using QIAGEN RNeasy Micro Plus Kit (QIAGEN, Valencia, Calif.), following manufacturer's guidelines and converted to cDNA by reverse transcription (RT) with random hexamers and Multiscribe RT (TQMN, Reverse Transcription Reagents; Applied Biosystems, Foster City, Calif.). For mRNA gene expression assays, probes were purchased from Applied Biosystems (Table 2) and the reactions were set up following manufacturer's guidelines and run on a StepOne Real-Time PCR System (Applied Biosystems). Values are represented as the difference in Ct values normalized to β2-microglobulin for each sample as per the following formula: Relative RNA expression=(2^−dCt)×1000.

Test [2] deals with CD4^+ T cells. As to the kind of experiment: shRNA-transduced CD4+ T cells stimulated in the presence or absence of IMQ. It is filed as cell-based, human.
Text: Enzyme-linked immunosorbent assay.
as §1
Gene silencing by lentiviral transduction. Lentiviral particles encoding shRNAs were obtained from Sigma-Aldrich (NFAT1 clone TRCN0000016144, TLR7 clones 3 and 4 TRCN0000056973 and TRCN0000056974, respectively). 5×10^4 CD4^+ T cells per well were stimulated with plate-bound anti-CD3 (1 μg/ml) and soluble anti-CD28 (1 μg/ml) for 12 h before transduction. Cells were then transduced with viral particles containing a vector expressing the indicated specific shRNA (NFAT1 or TLR7) or a non-target shRNA as a control at a multiplicity of infection of 4. All constructions contained the coding sequence for GFP. After 5 days in culture, transduced cells were sorted based on GFP expression and the efficiency of gene silencing was determined by TaqMan real-time PCR and protein staining.

Test [3] deals with CD4^+ T cells. Description: Anergy-related gene expression, TaqMan real-time PCR. It is filed as cell-based, human.
Text: as §1
To examine whether TLR7 stimulation and subsequent NFAT dephosphorylation induces the expression of anergy-related genes, CD4^+ T cells were incubated for 2-16 hours with IMQ in the presence or absence of the TLR7 inhibitory sequence IRS661 and RNA was isolated to examine the hypothesis that TLR7 engagement induced expression of anergy-related genes previously described. As a control for anergy-related gene expression, CD4^+ T cells were incubated with either ionomycin and PMA or ionomycin alone. […] The effect observed in the regulation of these genes was TLR7-specific, as preincubation of CD4^+ T cells with IRS661 before IMQ treatment abrogated the increase in anergy-related gene expression.

For test [4], the system named is CD4^+ T cells. Description: Intracellular calcium measurement (INDO-1AM). It is filed as cell-based, human. The protocol:
Intracellular calcium measurements. Ex vivo isolated CD4^+ T cells were labeled with 5 μM INDO-1AM for one hour at 37° C. in PBS, 1 mM Ca^2+. Cells were washed to remove traces of INDO-1AM, resuspended in buffer at 10^6 cells/ml and incubated for 30 minutes at 37° C. before analysis. When necessary, IRS661 was added at the indicated concentration during the 30 minute incubation. For acquisition, the sample was acquired for approximately 3 minutes to obtain basal levels of calcium and subsequently IMQ or other reagents were added at the indicated concentrations. Samples were acquired for a minimum of 10 minutes on a BD Fortessa instrument and analysed with FlowJo software.

Test [5] has as its system CD4^+ T cells. As to the kind of experiment: Expression of activation markers on stimulated CD4+ T cells. It is filed as cell-based, human. The conditions noted are these: 48 hours after activation. From the text: Cell activation and intracellular staining.
Test [6] concerns HIV-1NL-D. Description: HIV-1 in vitro infection of CD4+ T cells. It is filed as cell-based. The settings on record: treatment before infection, MOI 0.001. On the procedure: Preparation of HIV-1 virus stocks. HIV-1 proviral DsRed-tagged DNA pNL-D (derived from the prototype HIV-1 proviral DNA pNL432) was kindly provided by Dr. Yasuko Tsunetsugu-Yokota. 293T cells were used to prepare viral stocks following published protocols with minor modifications. In brief, 293T cells were plated at 0.5×10^6/well in 12-well plates and transfected with 2 μg pNL-D using Lipofectamine 2000 (Invitrogen) for 48 hours. Culture supernatant was treated with benzonase (1U/ml) for 30 minutes at 37 C, cleared by filtration and titrated on 293T cells. Stocks were stored at −80 C.
HIV-1 in vitro infection. CD4^+ T cells were stimulated with anti-CD3 (1 μg/ml) and anti-CD28 (1 μg/ml) for 48 hours and subsequently infected with HIV-1 at a MOI of 0.001 (concentration within the physiological range). Viability and cytokine secretion was measured every 48 hours for a total of 11 days after infection.
For HIV-1 infection on TLR7-deficient cells, CD4^+ T cells were stimulated as above and transduced with the corresponding lentiviral particles. 48 hours after transduction, the cells were infected with HIV-1NL-D at a MOI of 0.001. Viability and frequency of HIV-1-infected cells were measured at different time points by LIVE/DEAD cell dye staining and fixation with 1% PFA (to avoid DsRed signal loss). For intracellular staining after infection, the cells were restimulated with PMA and Ionomycin in the presence of GolgiStop for 4 hours and the staining was performed as recommended by Grupillo et al.

[7] abbreviates: NFAT shRNA-transduced cells, 3 days.
[8] abbreviates: TLR7 shRNA-transduced cells, 3 days.
Where [9] appears, read: non-target shRNA-transduced cells, 3 days, listed as IMQ.

As to `CC(C)Cn1cnc2c(N)nc3ccccc3c21` [Imiquimod], in test [1], the “induction of IFNγ gene expression” value is on record as “significant decrease”, the “induction of IL-2 gene expression” value was “significant decrease” and the “induction of IL-4 gene expression” value is listed as “significant decrease”. The NFAT1 gene expression entry in test [2] (24 hours after stimulation) is on record as “did not have an effect”. In addition, in test [2] (setting [7]), the IFNγ production result is “not affected” and the IL-2 production result was “not affected”. In test [2] (setting [8]), the “IMQ-induced decrease of IFNγ secretion” value is recorded as “abolished” and the “IMQ-induced decrease of IL-2 secretion” value is “abolished”. Also, in test [2] (setting [9]), the IFNγ secretion entry is “decrease; also recorded: significantly reduced” and the IL-2 secretion entry is “decrease; also recorded: significantly reduced”. Also, the “expression of Sirt1, Itch, Cblb, Dgka, Egr2 and Egr3” value in test [3] (IMQ treatment, 2 hours) was “all of them but Egr2 showed a significant upregulation”. In addition, in test [3] (NFAT1-deficient cells vs non-target transduced, IMQ 2 hours), the “expression of anergy-related genes” value is “failed to upregulate”. Moreover, the “expression of 12 anergy-related genes” value in test [3] (compared to control and PMA and ionomycin) is “Ten of the 12 anergy-related genes examined were significantly upregulated”. Moreover, in test [4], the “duration of the increase in intracellular calcium concentration” value was “at least 20 minutes”. For the same molecule, the intracellular calcium concentration entry in test [4] (INDO-1AM ratio over time) was “significant and sustained (maintained for at least 20 minutes, FIGS. 23A and 23B) increase”. For the same molecule, the “expression of activation marker CD25” value in test [5] is reported as “inhibited”. In test [5] (listed as IMQ), the “expression of activation marker CD69” value is “inhibited; also recorded: decrease” and the “expression of activation marker CD137” value is “inhibited; also recorded: decrease”. Besides, the “frequency of HIV-1-infected CD4+ T cells” value in test [6] is “directly correlated with the concentration of IMQ used”.
